Data reported in patent publication US20260008760A1, “DIPEPTIDYL PEPTIDASE 1 INHIBITORS AND USES THEREOF” (Insmed Incorporated, priority 2024, published 2026).

Experiments:
DPP1 in HL-60 cells = DPP1 in HL-60 cells (Homo sapiens, UniProt P53634); test: DPP1 Cell IC50 assay; assay type: cell-based; parameters: host or cells: HL-60 cells; conditions: 60 min pre-incubation, H-Gly-Phe-AFC substrate, average of n runs, read-out: Avg. IC50 (DPP1 Cell IC50 value ranges)
Method: Example 99. DPP1 Cell IC50 assay
HL-60 cells (ATCC; Manassas, VA) were maintained in RPMI-1640 supplemented with 20% heat-inactivated FBS and 1× Antibiotic Antimycotic (Cytiva; Marlborough, MA). Media was changed every three to four days and cells were not allowed to exceed 1×10^6 cells per mL. Prior to assay, cells were collected by centrifugation at 500 rcf for 3 minutes, resuspended in PBS and counted. Cells were diluted in PBS to a concentration of 5×10^5 live cells per mL and transferred to black 96-well plates for assay, 60 μL per well. Test articles were diluted in PBS plus 0.5% DMSO, and 20 μL was added to each assay well. Compound was allowed to pre-incubate with cells with gentle shaking at 100 rpm for 60 minutes at 37° C. in a cell culture incubator maintained at 5% CO2, after which 20 μL of 500 μM H-Gly-Phe-AFC substrate (MP Biomedicals; Solon, OH) was added to each well. Plates were returned to the incubator with shaking at 100 rpm for 30 minutes, after which fluorescence was measured at Excitation/Emission 400/505 nm. % Inhibition was calculated from RFU values compared to control cell wells that received only PBS plus 0.5% DMSO. IC50 values for each compound were calculated via the XLFit (IDBS Version 5.3.1.3) Add-On to Microsoft Excel using the four parameter fit equation y=(A+((B−A)/(1+((C/x)^D)))), which appears as equation number 205 (4 Parameter Logistic Model or Sigmoidal Dose-Response Model) in XLFit. IC50 was defined as the compound concentration at which 50% of enzyme activity was inhibited when compared to the no-compound control.

human DPP1 enzyme = human DPP1 enzyme (Homo sapiens, UniProt P53634); test: Human DPP1 Enzyme IC50 Assay; assay type: biochemical; parameters: was first proteolytically processed into its mature form using recombinant human cathepsin L; purchased R&D Systems; conditions: activated recombinant human DPP1, 400 μM H-Gly-Arg-AMC, 10 minutes pre-incubation at 37° C., pH 6.0; average of n runs; read-out: Avg. IC50 (Human DPP1 enzyme IC50 value ranges)
Method: Example 97. Human DPP1 Enzyme IC50 Assay
Recombinant human DPP1 enzyme (R&D Systems; Minneapolis, MN) was first proteolytically processed into its mature form using recombinant human cathepsin L (R&D Systems) in a buffer consisting of 20 mM citric acid pH 4.5, 150 mM NaCl, 1 mM EDTA and 10 mM DTT. Test articles were applied to activated human DPP1 enzyme in Assay Buffer (25 mM MES pH 6.0, 50 mM NaCl, 5 mM DTT) in a total reaction volume of 125 μL. 25 μL of compound in Assay Buffer plus 5% DMSO was first added to 50 μL of activated human DPP1 enzyme at a concentration of 1 ng/μL and allowed to pre-incubate for 10 minutes at 37° C. after which 50 μL of 1000 μM H-Gly-Arg-AMC substrate (Bachem; St. Torrance, CA) was added, giving final substrate concentration of 400 μM and a final DMSO concentration of 1%. Substrate cleavage was measured for 90 minutes at 37° C., with fluorescence at Excitation/Emission 350/450 nm measured every 5 minutes. DPP1 concentration was interpolated based on its activity relative to a standard curve of activated human recombinant DPP1 enzyme. IC50 values for each compound were calculated via the XLFit (IDBS Version 5.3.1.3) Add-On to Microsoft Excel using the four parameter fit equation y={A+[(B−A)]/[1+((C/x)^D)]}, which appears as equation number 205 (4 Parameter Logistic Model or Sigmoidal Dose-Response Model) in XLFit. Default constraints were used for each Parameter. IC50 was defined as the compound concentration at which 50% of enzyme activity was inhibited when compared to the no-compound control.

Sequence of DPP1 in HL-60 cells (P53634 25-463): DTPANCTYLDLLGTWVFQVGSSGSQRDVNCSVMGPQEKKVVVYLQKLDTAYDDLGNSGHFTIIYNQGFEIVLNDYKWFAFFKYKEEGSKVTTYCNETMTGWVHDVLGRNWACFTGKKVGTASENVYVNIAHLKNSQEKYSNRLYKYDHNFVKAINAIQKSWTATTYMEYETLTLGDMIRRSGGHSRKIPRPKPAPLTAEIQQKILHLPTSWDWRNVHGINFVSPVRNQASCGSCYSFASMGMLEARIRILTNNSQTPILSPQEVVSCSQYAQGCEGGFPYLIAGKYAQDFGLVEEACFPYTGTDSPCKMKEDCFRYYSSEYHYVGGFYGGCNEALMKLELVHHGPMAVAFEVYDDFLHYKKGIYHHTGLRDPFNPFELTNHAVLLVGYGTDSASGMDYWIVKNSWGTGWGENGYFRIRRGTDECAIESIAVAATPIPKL
Sequence of human DPP1 enzyme (P53634 25-134 limits assumed): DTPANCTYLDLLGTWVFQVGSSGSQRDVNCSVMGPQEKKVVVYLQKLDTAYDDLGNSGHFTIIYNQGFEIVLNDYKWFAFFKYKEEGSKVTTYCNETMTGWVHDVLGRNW
Sequence of human DPP1 enzyme (P53634 231-394 limits assumed): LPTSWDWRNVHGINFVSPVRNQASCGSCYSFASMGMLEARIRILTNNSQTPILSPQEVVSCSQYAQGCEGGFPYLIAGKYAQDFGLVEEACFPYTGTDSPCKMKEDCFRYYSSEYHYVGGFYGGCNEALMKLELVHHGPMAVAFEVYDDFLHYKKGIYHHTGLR
Sequence of human DPP1 enzyme (P53634 395-463 limits assumed): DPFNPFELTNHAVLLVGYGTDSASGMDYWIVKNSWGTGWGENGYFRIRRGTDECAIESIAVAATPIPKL

IC50 (DPP1 in HL-60 cells) [nM]	IC50 (human DPP1 enzyme) [nM]	SMILES
1 to 2.5	5 to 15	CO[C@@H]1CCNC[C@@H](C(=O)NC(C#N)Cc2cnc(-c3ccc4c(F)nn(C)c4c3)s2)OC1 (mixture of isomers) [Compound A38, (2S,7R)—N-{1-cyano-2-[2-(3-fluoro-1-methylindazol-6-yl)-1,3-thiazol-5-yl]ethyl}-7-methoxy-1,4-oxazocane-2-carboxamide]
1 to 2.5	5 to 15	N#CC(Cc1cc2c(cc1F)-c1cc(C3COC3)c(F)cc1CO2)NC(=O)[C@@H]1CNCCCCO1 (mixture of isomers) [Compound B10, (2S)—N-{1-cyano-2-[2,8-difluoro-9-(oxetan-3-yl)-6H-benzo[c]chromen-3-yl]ethyl}-1,4-oxazocane-2-carboxamide]
1 to 2.5	< 5	CO[C@@H]1CCNC[C@@H](C(=O)NC(C#N)Cc2cc3c(cc2F)-c2ccc(C#N)cc2CO3)OC1 (mixture of isomers) [Compound B11, (2S,7R)—N-(1-cyano-2-{8-cyano-2-fluoro-6H-benzo[c]chromen-3-yl}ethyl)-7-methoxy-1,4-oxazocane-2-carboxamide]
1 to 2.5	< 5	CO[C@H]1CCO[C@H](C(=O)NC(C#N)Cc2cc3c(cc2F)-c2cc(C4COC4)c(F)cc2CO3)CNC1 (mixture of isomers) [Compound B15, (2S,6S)—N-{1-cyano-2-[2,8-difluoro-9-(oxetan-3-yl)-6H-benzo[c]chromen-3-yl]ethyl}-6-methoxy-1,4-oxazocane-2-carboxamide]
> 2.5	> 15	Cn1c(=O)oc2ccc3c(c21)COc1cc(CC(C#N)NC(=O)[C@@H]2CNCCCO2)c(F)cc1-3 (mixture of isomers) [Compound C2, (2S)—N-(1-cyano-2-(8-fluoro-3-methyl-2-oxo-3,4-dihydro-2H-benzo[3,4]isochromeno[8,7-d]oxazol-7-yl)ethyl)-1,4-oxazepane-2-carboxamide]
> 2.5	< 5	CN1CCC2(CCc3cc4c(cc32)-c2cc(F)c(CC(C#N)NC(=O)[C@@H]3CNCCCO3)cc2OC4)CC1 (mixture of isomers) [Compound C3, (2S)—N-(1-cyano-2-{2-fluoro-1′-methyl-8,9-dihydro-6H-spiro[indeno[5,6-c]chromene-10,4′-piperidin]-3-yl}ethyl)-1,4-oxazepane-2-carboxamide]
> 2.5	> 15	Cc1cn2cc(-c3cc4sc(C[C@@H](C#N)NC(=O)[C@@H]5CNCCCCO5)cc4s3)cc2c(C)n1 (single isomer, unassigned) [Compound A30]
> 2.5	> 15	Cc1cn2cc(-c3cc4sc(C[C@H](C#N)NC(=O)[C@@H]5CNCCCCO5)cc4s3)cc2c(C)n1 (single isomer, unassigned) [Compound A31]
> 2.5	> 15	CO[C@H]1CCO[C@H](C(=O)N[C@H](C#N)Cc2cc3cc(-c4cc5c(C)nc(C)cn5c4)ccc3s2)CNC1 (single isomer, unassigned) [Compound A45]
> 2.5	> 15	CO[C@H]1CCO[C@H](C(=O)NC(C#N)Cc2cc3cc(-c4cc5c(C)nc(C)cn5c4)ccc3s2)CNC1 (single isomer, unassigned) [Compound A46]
1 to 2.5	5 to 15	CO[C@@H]1CCNC[C@@H](C(=O)N[C@H](C#N)Cc2cc3cc(-c4cc5c(C)nc(C)cn5c4)ccc3s2)OC1 (single isomer, unassigned) [Compound A51]
> 2.5	> 15	CO[C@@H]1CCNC[C@@H](C(=O)NC(C#N)Cc2cc3cc(-c4cc5c(C)nc(C)cn5c4)ccc3s2)OC1 (single isomer, unassigned) [Compound A52]
< 1	< 5	CO[C@H]1CCO[C@H](C(=O)N[C@H](C#N)Cc2cc3c(cc2F)-c2ccc(C#N)cc2CO3)CNC1 (single isomer, unassigned) [Compound B13]
> 2.5	> 15	CO[C@H]1CCO[C@H](C(=O)NC(C#N)Cc2cc3c(cc2F)-c2ccc(C#N)cc2CO3)CNC1 (single isomer, unassigned) [Compound B14]
> 2.5	> 15	Cn1c(=O)oc2cc3c(cc21)-c1cc(F)c(CC(C#N)NC(=O)[C@@H]2CNCCCCO2)cc1OC3 (single isomer, unassigned) [Compound C6]
> 2.5	> 15	COC1CNC[C@@H](C(=O)N[C@H](C#N)Cc2ccc(-c3ccc4nnn(C)c4c3)cc2)OC1 (single isomer, unassigned) [Compound H12-A]
> 2.5	> 15	N#C[C@H](Cc1ccc(C23CCC(C#N)(CC2)CC3)cc1)NC(=O)[C@@H]1CNCCCO1 [Compound 4]
> 2.5	> 15	CN1CCC2(CC1)C(=O)Nc1ccc(-c3ccc(C[C@@H](C#N)NC(=O)[C@@H]4CNCCCO4)cc3)cc12 [Compound 13, (2S)—N-[(1S)-1-cyano-2-(4-{1′-methyl-2-oxo-1H-spiro[indole-3,4′-piperidin]-5-yl}phenyl)ethyl]-1,4-oxazepane-2-carboxamide]
> 2.5	5 to 15	N#C[C@H](Cc1ccc(-c2ccc3c(c2)C2(CCNCC2)C(=O)C3)cc1)NC(=O)[C@@H]1CNCCCO1 [Compound 22, (2S)—N-[(1S)-1-cyano-2-(4-{2-oxo-3H-spiro[indene-1,4′-piperidin]-6-yl}phenyl)ethyl]-1,4-oxazepane-2-carboxamide]
> 2.5	5 to 15	CN1C(=O)C2(CCNCC2)c2cc(-c3ccc(C[C@@H](C#N)NC(=O)[C@@H]4CNCCCO4)cc3)ccc21 [Compound 23, (2S)—N-[(1S)-1-cyano-2-(4-{1-methyl-2-oxospiro[indole-3,4′-piperidin]-5-yl}phenyl)ethyl]-1,4-oxazepane-2-carboxamide]
> 2.5	> 15	N#C[C@H](Cc1ccc(-c2ccc3c(c2)C2(CCNC2)OC3=O)cc1)NC(=O)[C@@H]1CNCCCO1 (stereo partly drawn) [Compound 25, (2S)—N-[(1S)-1-cyano-2-(4-{3-oxospiro[2-benzofuran-1,3′-pyrrolidin]-6-yl}phenyl)ethyl]-1,4-oxazepane-2-carboxamide]
> 2.5	> 15	N#C[C@H](Cc1ccc(-c2ccc3c(c2)C2(CN(C4COC4)C2)OC3=O)cc1)NC(=O)[C@@H]1CNCCCO1 [Compound 27, (2S)—N-[(1S)-1-cyano-2-{4-[1-(oxetan-3-yl)-3′-oxospiro[azetidine-3,1′-[2]benzofuran]-6′-yl]phenyl}ethyl]-1,4-oxazepane-2-carboxamide]
> 2.5	> 15	CN1C(=O)C2(CCN(C3COC3)CC2)c2cc(-c3ccc(C[C@@H](C#N)NC(=O)[C@@H]4CNCCCO4)cc3)ccc21 [Compound 29, (2S)—N-[(1S)-1-cyano-2-{4-[1-methyl-1′-(oxetan-3-yl)-2-oxospiro[indole-3,4′-piperidin]-5-yl]phenyl}ethyl]-1,4-oxazepane-2-carboxamide]
> 2.5	5 to 15	N#C[C@H](Cc1ccc(-c2ccc3c(c2)C2(CCNCC2)CC3=O)cc1)NC(=O)[C@@H]1CNCCCO1 [Compound 30, (2S)—N-[(1S)-1-cyano-2-(4-{3-oxo-2H-spiro[indene-1,4′-piperidin]-6-yl}phenyl)ethyl]-1,4-oxazepane-2-carboxamide]
> 2.5	> 15	COc1ccc(-c2ccc(C[C@@H](C#N)NC(=O)[C@@H]3CNCCCO3)cc2)cc1-n1cnnc1 [Compound 31, (2S)—N-[(1S)-1-cyano-2-[4′-methoxy-3′-(1,2,4-triazol-4-yl)-[1,1′-biphenyl]-4-yl]ethyl]-1,4-oxazepane-2-carboxamide]
